This is an account of results in patent publication US8691818B2, “Cyclic triazo and diazo sodium channel blockers” (University Of Greenwich, priority 2008, dated 2014).

Usually melting point stands for the temperature of the solid-liquid transition. The inhibition is the drop in the measured response relative to a control, in per cent. What is called IC50 is the concentration that inhibits the measured activity by half.

Data set [1] addresses T1, DiHydroFolate Reductase (DHFR) (Rattus norvegicus, UniProt Q920D2).
T1 construct: from tissue; host or cells: rat liver homogenate supernatant
T1 sequence (Q920D2 1-187): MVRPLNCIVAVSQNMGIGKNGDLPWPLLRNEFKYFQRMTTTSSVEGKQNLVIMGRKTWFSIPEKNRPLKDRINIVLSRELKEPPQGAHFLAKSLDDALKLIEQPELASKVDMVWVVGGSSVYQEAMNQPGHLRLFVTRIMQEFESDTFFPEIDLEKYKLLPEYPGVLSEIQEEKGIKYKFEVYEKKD
The data set can be described thus: Inhibition of binding of [3H]methotrexate to rat liver homogenate supernatant. Conditions: for inhibition at 125 µM: read-out: [3H]mtx binding (% inhibition @ 125 μM); for inhibition at 99 µM: read-out: [3H]mtx binding % inhibition (* 99 μM, *** uses fresh batch of supernatant), 99 μM, fresh batch of supernatant. The method, then: All steps were carried out at 4° (or on ice). Freshly dissected rat liver was dissected into 0.25M ice-cold Sucrose and subsequently homogenised (U-turrax) in 50 mM pH 6.0 phosphate buffer (10 ml/g tissue) containing 15 mM Dithiothreitol. The resulting homogenate was centrifuged@47,500×g for 20 min and supernatant (filtered through cotton wool to remove fatty lumps) stored @ −80° before use (Rothenberg et al).
Inhibition of the binding of [^3H]methotrexate to rat liver homogenate supernatant fractions were carried out essentially as described by Arons et al, 1975.
(§1) Data are presented as mean±sem of number of experiments indicated in brackets.

The test system of the next data set is sodium channel. The data set can be described thus: [14C]guanidine flux: veratrine-evoked uptake of [14C]guanidine into rat forebrain synaptosomes (primary sodium channel assay). It is filed as biochemical. Conditions: 30° for 2½ min. The method, then:
The screening strategy is designed to select compounds with appropriate sodium channel blocking activity and low side effect liability. To this end all compounds are processed through the primary sodium channel assay (veratrine-evoked uptake of [^14C]guanidine into rat forebrain synaptosomes) and IC50 values computed from generated concentration-effect curves.
Experiments were performed using forebrain (whole brain less cerebellum/medulla) from Male Wistar rats weighing 175-250 g. All efforts were made to reduce the number of animals used and all experiments were carried out in accordance with the UK Animals (Scientific Procedures) Act, 1986 and the European Community Council Directive of 24 Nov. 1986 (86/609/EEC). Following killing of animals by stunning and decapitation, the forebrain (whole brain less cerebellum/medulla) was rapidly dissected and transferred to a weighed tube containing ice-cold 0.25M sucrose.
Synaptosomes (heavy and light mitochondrial fraction containing synaptosomes) were prepared by transferring the forebrain (of known wet weight) to a glass Potter vessel to which 9 volumes ice-cold 0.25M sucrose had been added and homogenising, using a teflon pestle, by 8 ‘up and down strokes’ of a Braun Potter S motor driven homogeniser set to 900 rpm. The resulting homogenate was centrifuged at 1036×g at 4° for 10 min and the supernatant collected. The remaining pellet was resuspended, as above, in fresh ice-cold 0.25M sucrose and the centrifugation step repeated. The supernatant fractions were pooled and centrifuged at 40,000×g (average) at 4° for 15 min and the resulting pellet resuspended in the appropriate assay buffer at a concentration of 20-25 mg wet weight per ml appropriate assay buffer.
Both assays were carried out using 14 ml polypropylene test tubes to which a range of concentrations of the compounds under test were added.
The [^14C] guanidinine flux assay was measured using the method of Pauwels P J et al (1986) but carried out@30° for 2½ min.
as §1

Where a name gives a salt, the structure may show the parent alone.

With `Cn1nc(-c2cc(C(F)(F)F)cc(Cl)c2F)c(N)nc1=N` (as salt: mesylate) [CEN-202, 5(3)-Amino-6-(3-chloro-2-fluoro-5-trifluoromethyphenyl)-2,3(2,5)-dihydro-3(5)-imino-2-methyl-1,2,4-triazine mesylate], the melting point lay in the range of 277 to 279 °C.
`CCn1nc(-c2cc(C(F)(F)F)cc(Cl)c2F)c(N)nc1=N` (as salt: mesylate) [CEN-203, 5(3)-Amino-6-(3-chloro-2-fluoro-5-trifluoromethyphenyl)-2,3(2,5)-dihydro-3(5)-imino-2-ethyl-1,2,4-triazine mesylate] registered a melting point of 277 to 279 °C.
On the same count and under the same terms, as for `Cn1nc(-c2cc(F)c(F)cc2Cl)c(N)nc1=N` (as salt: mesylate) [CEN-204, 5(3)-Amino-6-(2-chloro-4,5-difluoro-5-phenyl)-2,3(2,5)-dihydro-3(5)-imino-2-methyl-1,2,4-triazine mesylate], the figure is 319 to 321 °C.
`Cn1nc(-c2cccs2)c(N)nc1=N` (as salt: methanesulfonate) [CEN-61, 5(3)-Amino-6-(2-thienyl)-2,3(2,5)-dihydro-3(5)-imino-2-methyl-1,2,4-triazine methanesulfonate] returned a melting point of 201 to 202 °C.
In turn, `CCn1nc(-c2cccs2)c(N)nc1=N` (as salt: methanesulfonate) [CEN-62, 5(3)-Amino-6-(2-thienyl)-2,3(2,5)-dihydro-3(5)-imino-2-ethyl-1,2,4-triazine methanesulfonate] returned a melting point of 194 to 196 °C.
The compound `CCn1nc(-c2ccc3ccccc3c2)c(N)nc1=N` (as salt: methanesulfonate) [CEN-75, 5(3)-Amino-6-(2-naphthyl)-2,3(2,5)-dihydro-3(5)-imino-2-ethyl-1,2,4-triazine methanesulfonate] returned a melting point of 175 to 177 °C.
Still for that read-out and setting: as for `Cn1nc(-c2ccc3ccccc3c2)c(N)nc1=N` (as salt: methanesulfonate) [CEN-76, 5(3)-Amino-6-(2-naphthyl)-2,3(2,5)-dihydro-3(5)-imino-2-methyl-1,2,4-triazine methanesulfonate], the figure is 243 to 244 °C.
`Cn1nc(-c2cc(C(F)(F)F)cc(C(F)(F)F)c2)c(N)nc1=N` (as salt: methanesulfonate) [CEN-99, 5(3)-Amino-6-[3,5-(bis-trifluoromethyl)phenyl]-2,3(2,5)-dihydro-3(5)-imino-2-methyl-1,2,4-triazine methanesulfonate] yielded a melting point of 179 to 181 °C.
In the case of `COc1cc(-c2nn(C)c(=N)nc2N)cc(OC)c1OC` (as salt: methanesulfonate) [CEN-101, 5(3)-Amino-6-(3,4,5-trimethoxyphenyl)-2,3(2,5)-dihydro-3(5)-imino-2-methyl-1,2,4-triazine methanesulfonate], the melting point was 258 to 259 °C.
Consider `Cn1nc(-c2ccc(Oc3ccccc3)cc2)c(N)nc1=N` (as salt: methanesulfonate) [CEN-102, 5(3)-Amino-6-(4-phenoxyphenyl)-2,3(2,5)-dihydro-3(5)-imino-2-methyl-1,2,4-triazine methanesulfonate], for which the melting point was 174 to 176 °C.
`CCn1nc(-c2cc(OC)c(OC)c(OC)c2)c(N)nc1=N` (as salt: methanesulfonate) [CEN-119, 5(3)-Amino-6-(3,4,5-trimethoxyphenyl)-2,3(2,5)-dihydro-3(5)-imino-2-ethyl-1,2,4-triazine methanesulfonate]: the melting point lay in the range of 305 to 306 °C.
For `Cn1nc(-c2cccc3c2CCCC3)c(N)nc1=N` (as salt: methanesulfonate) [CEN-120, 5(3)-Amino-6-[1-(5,6,7,8-tetrahydronaphthyl)]-2,3(2,5)-dihydro-3(5)-imino-2-methyl-1,2,4-triazine methanesulfonate], the melting point is 236 to 237 °C.
The compound `Cn1nc(-c2cc(Br)c(Br)o2)c(N)nc1=N` (as salt: methanesulfonate) [CEN-135, 5(3)-Amino-6-[2-(4,5-dibromofuryl)]-2,3(2,5)-dihydro-3(5)-imino-2-methyl-1,2,4-triazine methanesulfonate] yielded a melting point of 183 to 185 °C.
Turning to `Cn1nc(-c2ccccc2OC(F)F)c(N)nc1=N` (as salt: methanesulfonate) [CEN-146, 5(3)-Amino-6-(2-difluoromethoxyphenyl)-2,3(2,5)-dihydro-3(5)-imino-2-methyl-1,2,4-triazine methanesulfonate], the melting point lay in the range of 213 to 215 °C.
In turn, `Cn1nc(C(C)(c2ccccc2)c2ccccc2)c(N)nc1=N` (as salt: methanesulfonate) [CEN-149, 5(3)-Amino-6-(1,1-diphenylethyl)-2,3(2,5)-dihydro-3(5)-imino-2-methyl-1,2,4-triazine methanesulfonate] had a melting point of 240 to 242 °C.
With `Nc1nnc(-c2ccc3ccccc3n2)c(N)n1` [CEN-173, 3,5-Diamino-6-(2-quinolyl)-1,2,4-triazine], in data set [1] (125 μM), the inhibition at 125 µM is 34%. The same compound returned an IC50 with sodium channel of 159 µM.
For `Nc1nnc(-c2cc(C(F)(F)F)cc(C(F)(F)F)c2)c(N)n1` [CEN-175, 3,5-Diamino-6-[3,5 (bis-trifluoromethyl)phenyl]-1,2,4-triazine], the “[3H]mtx binding (% inhibition @ 125 μM)” value in data set [1] (125 μM, listed as 175, 125 µM) is listed as −4%. Moreover, the 50% inhibitory concentration (IC50) in the data set with sodium channel (listed as 175) is > 2000 µM.
In the case of `Nc1nnc(-c2cccc(C(F)(F)F)c2Cl)c(N)n1` [CEN-176, 3,5-Diamino-6-(2-chloro-3-trifluoromethylphenyl)-1,2,4-triazine], the inhibition at 125 µM in data set [1] (125 μM) was found to be 55%. Besides, it took 309 µM to reach half-maximal inhibition in the data set with sodium channel (IC50).
On to `CCn1nc(-c2cccc(C(F)(F)F)c2Cl)c(N)nc1=N` [CEN-178, 5(3)-Amino-6-(2-chloro-3-trifluoromethyphenyl)-2,3(2,5)-dihydro-3(5)-imino-2-ethyl-1,2,4-triazine methanesulphonate], for which the inhibition at 125 µM in data set [1] (125 μM) was 27%. In addition, inhibition with sodium channel was half-maximal at 28 µM (IC50).
In the same order, the values of `CC(C)c1cc(C(C)C)c(-c2nnc(N)nc2N)c(C(C)C)c1` [CEN-180, 3,5-Diamino-6-(2,4,6-triisopropylphenyl)-1,2,4-triazine tosylate] are -2% and > 2000 µM.
As for `Nc1nnc(-c2ccc(F)c(Oc3ccccc3)c2)c(N)n1` [CEN-184, 3,5-Diamino-6-(4-fluoro-3-phenoxylphenyl)-1,2,4-triazine tosylate], the inhibition at 125 µM in data set [1] (125 μM) is 104%. In the data set on sodium channel, this compound had an IC50 of 34 µM.
Turning to `Nc1nnc(-c2cccc(-c3nnc(N)nc3N)c2)c(N)n1` [CEN-186], the inhibition at 125 µM in data set [1] (125 μM) is 83%. Also, in the data set with sodium channel, the IC50 is > 2000 µM.
Taken in the same sequence, the figures for `Nc1nnc(-c2nc(Cl)ccc2Cl)c(N)n1` [CEN-188, 3,5-Diamino-6-[2-(3,6-dichloropyidyl)]-1,2,4-triazine] were 76% and 2570 µM.
With `Nc1nnc(-c2cc(F)c(Cl)nc2Cl)c(N)n1` [CEN-190, 3,5-Diamino-6-[3-(2,6-dichloro-5-fluoropyidyl)]-1,2,4-triazine], the inhibition at 125 µM in data set [1] (125 μM) stood at 6%. This compound came in with an IC50 with sodium channel of 813 µM.
As for `Nc1nnc(-c2ccc(Cl)nc2)c(N)n1` [CEN-191, 3,5-Diamino-6-[3-(6-chloro-pyridyl)]-1,2,4-triazine], the inhibition at 125 µM in data set [1] (125 μM) amounted to 31%. This compound also yielded an IC50 with sodium channel of 1950 µM.
In the case of `Cn1nc(-c2sc(Cl)c(Cl)c2Cl)c(N)nc1=N` [CEN-194, 5(3)-Amino-6-{2-(3,4,5-trichloro)thienyl}-2,3(2,5)-dihydro-3(5)-imino-2-methyl-1,2,4-triazine methanesulfonate], the inhibition at 99 µM in data set [1] is -6%. The concentration for half-maximal inhibition (IC50) in the data set on sodium channel is 9 µM.
As to `CCn1nc(-c2sc(Cl)c(Cl)c2Cl)c(N)nc1=N` [CEN-195, 5(3)-Amino-6-{2-(3,4,5-trichloro)thienyl}-2,3(2,5)-dihydro-3(5)-imino-2-ethyl-1,2,4-triazine methanesulfonate], in data set [1], the inhibition at 99 µM was -2%. Further, the 50% inhibitory concentration (IC50) with sodium channel stood at 4 µM.
On to `Nc1nnc(-c2ccco2)c(-c2ccco2)n1` [CEN-196, 3-Amino-5,6-bis(2-furyl)-1,2,4-triazine], for which, in data set [1], the inhibition at 99 µM is 41%. In the data set with sodium channel, this compound came in with an IC50 of 912 µM.
